# Measurements taken from patent US9234000B2, “Benzylamine derivatives as inhibitors of plasma kallikrein” (KalVista Pharmaceuticals Limited, priority 2011, dated 2016).
# Experiments:
# [1] = Determination of thermodynamic solubility in phosphate buffer; assay type: physicochemical; settings: pH 7.4, aqueous buffer, thermodynamic from solid, ammonium phosphate buffer pH7.4, 290 mOsm, 37° C., nominal 1 mg/mL, read-out: Solubility in PO4 buffer
# Method: Determination of Thermodynamic Solubility in Phosphate Buffer
# The thermodynamic solubility of compound was determined in Ammonium Phosphate Buffer (pH7.4, 290 mOsm). Compounds were made up at a nominal concentration of 1 mg/mL, vortexed then placed on a shaker for 1 h, 37° C. at approximately 950 rpm. Following incubation samples were transferred to eppendorf tubes and centrifuged at 15,000 g (r.c.f.) for 10 minutes at 37° C. The concentration of compound in the supernatant was determined by LC-MS/MS analysis using a calibration line prepared from a DMSO stock.
# Human KLK1 = Human KLK1 (Homo sapiens (Human), UniProt P06870); experiment: Determination of the IC50 for KLK1; assay type: biochemical; settings: Human KLK1, 37° C., substrate H-DVal-Leu-Arg-AFC; Table 12
# Outline: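 IC50 values reflect residual human KLK1 activity, read as initial rate from optical absorbance change at 410 nm. Incubations ran at 37° C with H-DVal-Leu-Arg-AFC as substrate across a compound concentration series.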
# physchem = settings: pH 7
# Method: Determination of the Kinetic Solubility in Phosphate Buffer
# After shaking for approximately 30 seconds the reduction in light transmission of these samples, at 650 nm, was measured (Molecular Devices Spectromax UV/visible spectrophotometer). A second measurement was taken at approximately 30 seconds later.
# Human plasma kallikrein = Human plasma kallikrein (Homo sapiens (Human), UniProt P03952); experiment: Determination of the IC50 for plasma kallikrein; assay type: biochemical; settings: fluorogenic substrate H-DPro-Phe-Arg-AFC, 37° C., read-out: IC50 (human PKal)
# Outline: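 Residual activity (initial rate, absorbance at 410 nm) gave the IC50. Reactions at 37° C combined human plasma kallikrein, substrate H-DPro-Phe-Arg-AFC and a range of inhibitor concentrations.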
# Sequence of Human KLK1 (P06870 25-262): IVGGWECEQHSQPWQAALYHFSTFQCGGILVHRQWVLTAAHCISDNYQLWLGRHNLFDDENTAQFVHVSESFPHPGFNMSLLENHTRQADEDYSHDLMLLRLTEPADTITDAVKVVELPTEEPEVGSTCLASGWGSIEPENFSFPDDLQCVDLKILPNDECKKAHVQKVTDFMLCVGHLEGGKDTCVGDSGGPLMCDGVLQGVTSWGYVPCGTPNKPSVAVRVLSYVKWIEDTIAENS
# Sequence of Human plasma kallikrein (P03952 391-638): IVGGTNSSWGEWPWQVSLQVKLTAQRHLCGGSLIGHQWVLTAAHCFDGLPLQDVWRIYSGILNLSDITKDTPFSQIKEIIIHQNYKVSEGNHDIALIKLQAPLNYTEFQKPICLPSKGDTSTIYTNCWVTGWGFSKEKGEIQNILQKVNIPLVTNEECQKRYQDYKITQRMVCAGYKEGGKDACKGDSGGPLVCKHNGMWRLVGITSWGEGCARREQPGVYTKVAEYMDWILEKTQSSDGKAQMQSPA
# Sequence of Human plasma kallikrein (P03952 20-390 partner): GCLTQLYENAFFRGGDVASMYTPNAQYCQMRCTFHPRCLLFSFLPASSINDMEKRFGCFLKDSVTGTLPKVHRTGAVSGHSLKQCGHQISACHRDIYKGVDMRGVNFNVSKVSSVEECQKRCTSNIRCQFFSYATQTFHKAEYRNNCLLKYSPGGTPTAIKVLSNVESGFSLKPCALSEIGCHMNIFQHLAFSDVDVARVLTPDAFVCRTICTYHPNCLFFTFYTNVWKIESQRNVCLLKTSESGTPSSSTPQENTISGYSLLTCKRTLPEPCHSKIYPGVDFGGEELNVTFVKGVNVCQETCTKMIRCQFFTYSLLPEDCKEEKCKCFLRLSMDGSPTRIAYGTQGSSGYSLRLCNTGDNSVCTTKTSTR
solubility at 1 h [1] [µg/mL],IC50 (Human KLK1) [nM],solubility in PO4 buffer (physchem) [µM],IC50 (Human plasma kallikrein) [nM],SMILES
2.28,–,–,–,"CCOc1ccc(C[C@@H](NC(=O)c2ccccc2)C(=O)N[C@@H](Cc2c[nH]c3ccccc23)C(=O)NCc2ccc(CN)cc2)cc1 [Example 176, N-[(R)-1-[(S)-1-(4-Aminomethyl-benzylcarbamoyl)-2-(1H-indol-3-yl)-ethylcarbamoyl]-2-(4-ethoxy-phenyl)-ethyl]-benzamide]"
0.56,–,–,–,"CCCOc1ccc(C[C@@H](NC(=O)c2ccccc2)C(=O)N[C@@H](Cc2ccccc2)C(=O)NCc2ccc(CN)cc2)cc1 [Example 131, N-[(R)-1-[(S)-1-(4-Aminomethyl-benzylcarbamoyl)-2-phenyl-ethylcarbamoyl]-2-(4-propoxy-phenyl)-ethyl]-benzamide]"
–,> 10000,> 235,650,"CCCN(CCC)[C@H](CC1CCCCC1)C(=O)N[C@@H](Cc1ccccc1)C(=O)NCc1ccc(CN)cc1 [Example 53, (R)-N-[(S)-1-(4-Aminomethyl-benzylcarbamoyl)-2-phenyl-ethyl]-3-cyclohexyl-2-dipropylamino-propionamide]"
–,> 10000,> 235,1600,"CCOc1ccc(C[C@@H](NC(=O)CC)C(=O)N2CC[C@H](c3ccccc3)[C@H]2C(=O)NCc2ccc(CN)cc2)cc1 [Example 67, (2S,3R)-1-[(R)-3-(4-Ethoxy-phenyl)-2-propionylamino-propionyl]-3-pheny-pyrrolidine-2-carboxylic acid 4-aminomethyl-benzylamide]"
2.05,–,–,–,"CCOc1ccc(C[C@@H](NC(=O)c2ccc(OC)cc2)C(=O)N[C@@H](Cc2ccccc2)C(=O)NCc2ccc(CN)cc2)cc1 [Example 95, N-[(R)-1-[(S)-1-(4-Aminomethyl-benzylcarbamoyl)-2-phenyl-ethylcarbamoyl]-2-(4-ethoxy-phenyl)-ethyl]-4-methoxy-benzamide]"
–,3700,> 235,730,"NCc1ccc(CNC(=O)[C@H](Cc2ccc(Cl)c(Cl)c2)NC(=O)[C@H](N)CC2CCCCC2)cc1 [Example 20, (R)-2-Amino-N-[(S)-1-(4-aminomethyl-benzylcarbamoyl)-2-(3,4-dichloro-phenyl)-ethyl]-3-cyclohexyl-propionamide]"
–,4000,> 235,1300,"CCOc1ccc(C[C@@H](NC)C(=O)N[C@@H](Cc2ccccc2)C(=O)NCc2ccc(CN)cc2)cc1 [Example 27, (R)-N-[(S)-1-(4-Aminomethyl-benzylcarbamoyl)-2-phenyl-ethyl]-3-(4-ethoxy-phenyl)-2-methylamino-propionamide]"
–,> 10000,> 235,790,"CCCN(C)[C@H](CC1CCCCC1)C(=O)N[C@@H](Cc1ccccc1)C(=O)NCc1ccc(CN)cc1 [Example 45, (R)-N-[(S)-1-(4-Aminomethyl-benzylcarbamoyl)-2-phenyl-ethyl]-3-cyclohexyl-2-(methyl-propyl-amino)-propionamide]"
–,> 10000,> 235,230,"NCc1ccc(CNC(=O)[C@H](Cc2ccccc2)NC(=O)[C@@H](CC2CCCCC2)NCC(=O)O)cc1 [Example 4, {(R)-1-[(S)-1-(4-Aminomethyl-benzylcarbamoyl)-2-phenyl-ethylcarbamoyl]-2-cyclohexyl-ethylamino}-acetic acid]"
–,> 10000,> 235,1100,"CN[C@H](CC1CCCCC1)C(=O)N[C@@H](Cc1ccccc1)C(=O)NCc1ccc(CN)cc1 [Example 33, (R)-N-[(S)-1-(4-Aminomethyl-benzylcarbamoyl)-2-phenyl-ethyl]-3-cyclohexyl-2-methylamino-propionamide]"
–,7700,> 235,1400,"CN(C(=O)[C@@H](CC1CCCCC1)NCC(=O)O)[C@@H](Cc1ccccc1)C(=O)NCc1ccc(CN)c(F)c1 [Example 34, ((R)-1-{[(S)-1-(4-Aminomethyl-3-fluoro-benzylcarbamoyl)-2-phenyl-ethyl]-methyl-carbamoyl}-2-cyclohexyl-ethylamino)-acetic acid]"
–,9600,> 235,4300,"CCOc1ccc(C[C@H](C(=O)N[C@@H](Cc2ccccc2)C(=O)NCc2ccc(CN)cc2)N(C)C(=O)CC)cc1 [Example 31, (S)-N-(4-Aminomethyl-benzyl)-2-[(R)-3-(4-ethoxy-phenyl)-2-(methyl-propionyl-amino)-propionylamino]-3-phenyl-propionamide]"
0.2,–,–,–,"CCOc1ccc(C[C@@H](NC(=O)c2ccc(C)cc2)C(=O)N[C@@H](Cc2ccccc2)C(=O)NCc2ccc(CN)cc2)cc1 [Example 92, N-[(R)-1-[(S)-1-(4-Aminomethyl-benzylcarbamoyl)-2-phenyl-ethylcarbamoyl]-2-(4-ethoxy-phenyl)-ethyl]-4-methyl-benzamide]"
–,> 1000,> 235,1000,"CCOc1ccc(C[C@@H](N)C(=O)N[C@@H](Cc2ccccc2)C(=O)NCc2ccc(CN)c(F)c2)cc1 [Example 6, (R)-2-Amino-N-[(S)-1-(4-aminomethyl-3-fluoro-benzylcarbamoyl)-2-phenyl-ethyl]-3-(4-ethoxy-phenyl)-propionamide]"
–,> 10000,> 235,8200,"CN(Cc1ccc(CN)cc1)C(=O)[C@H](Cc1ccccc1)NC(=O)[C@@H](CC1CCCCC1)NCC(=O)O [Example 36, ((R)-1-{(S)-1-[(4-Aminomethyl-benzyl)-methyl-carbamoyl]-2-phenyl-ethylcarbamoyl}-2-cyclohexyl-ethylamino)-acetic acid]"
–,> 1000,> 235,2000,"CN(C)[C@H](CC1CCCCC1)C(=O)N[C@@H](Cc1ccccc1)C(=O)NCc1ccc(CN)cc1 [Example 9, (R)-N-[(S)-1-(4-Aminomethyl-benzylcarbamoyl)-2-phenyl-ethyl]-3-cyclohexyl-2-dimethylamino-propionamide]"
–,2200,> 235,470,"CCOc1ccc(C[C@@H](NS(=O)(=O)c2ccccc2)C(=O)N[C@@H](Cc2ccccc2)C(=O)NCc2ccc(CN)cc2)cc1 [Example 15, (R)-N-[(S)-1-(4-Aminomethyl-benzylcarbamoyl)-2-phenyl-ethyl]-2-benzenesulfonylamino-3-(4-ethoxy-phenyl)-propionamide]"
–,> 10000,> 235,81,"CCOc1ccc(C[C@@H](NC(=O)CC)C(=O)N(C)[C@@H](Cc2ccccc2)C(=O)NCc2ccc(CN)cc2)cc1 [Example 26, (S)-N-(4-Aminomethyl-benzyl)-2-{[(R)-3-(4-ethoxy-phenyl)-2-propionylamino-propionyl]-methyl-amino}-3-phenyl-propionamide]"
–,6300,> 235,340,"CCOc1ccc(C[C@@H](N)C(=O)N(C)[C@@H](Cc2ccccc2)C(=O)NCc2ccc(CN)cc2)cc1 [Example 25, (R)-2-Amino-N-[(S)-1-(4-aminomethyl-benzylcarbamoyl)-2-phenyl-ethyl]-3-(4-ethoxy-phenyl)-N-methyl-propionamide]"
–,160,> 235,460,"CCOc1ccc(C[C@@H](N)C(=O)N[C@@H](Cc2ccccc2)C(=O)NCc2ccc(CN)cc2)cc1 [Example 5, (R)-2-Amino-N-[(S)-1-(4-aminomethyl-benzylcarbamoyl)-2-phenyl-ethyl]-3-(4-ethoxy-phenyl)-propionamide]"
